Assay results as given in patent US20160009752A1, “[…]-OXIMINO-AMINOALKYLETHERS AND PROCESS FOR PREPARATION THEREOF, USEFUL AS ANTIDIABETIC AND […] AGENTS” (COUNCIL OF SCIENTIFIC & INDUSTRIAL RESEARCH, priority 2013, published 2016).
Where two headings read alike, the source gives them in different places.

How the values were obtained:
[1] = tested on: db/+ mice; experiment: OGTT in glucose loaded db/+ mice; assay type: in vivo
Description: Male C57BL6-db/+ mice (12-18 week old, 18-20 g body weight) were procured from National Animal Laboratory Centre (NALC) of Central Drug Research Institute (CDRI), Lucknow, India Animals were housed in polypropylene cages, in controlled environment (temperature 25±2° C.; humidity 50-60%; light 300 lux at floor level with regular 12 h light-12 h dark cycle; noise level 50 decibel; ventilation 10-15 air changes per hour). They were provided with a standard laboratory diet (Dayal Industry, Barabanki, Lucknow) unless stated otherwise and has free access to water. The mice having fasting blood glucose values varying between 65-80 mg/dl were finally included in this study. Animals were divided into groups consisting of six animals in each. Group one was considered as control group, where as the other groups were termed as experimental groups. Rats of experimental groups were given the desired doses of the test samples i.e. 5, 10, 20, 30 and 50 mg/kg body weight. The test samples were always prepared in the vehicle 1% gum acacia. An oral glucose load of 3.0 g/kg was given to the animals of all the groups 30 min post administration of the test samples/vehicle. Blood glucose levels of the animals of all the groups were again measured at 30, 60, 90 and 120 min post glucose load. Food (not water) was removed from the cages during the experimental period. […] Comparing the AUC of test sample treated to that of control group determined the percent improvement in OGTT by test sample which is termed as anti-hyperglycaemic activity. Statistical comparison between the groups was done by employing Students t test.

[2] = Stability studies in rat plasma samples; assay type: in vitro ADME; conditions: freeze-thaw cycle, bench top, dry residue and long term conditions
From the text: The plasma of the rat treated with compound 14b was then processed for the stability study. The compound is found to be stable during freeze-thaw cycle, on the bench top, dry residue and long term conditions after extraction from plasma.

[3] = Stability in simulated gastric and intestinal fluid; assay type: in vitro ADME
[4] = Pharmacokinetic study after oral and intravenous dose in rats; assay type: in vivo; design: Vd/F / Vd: unit not given here; conditions: rat
From the text: In order to study its bioavailability, the method of its quantitative determination in plasma matrices in rat was developed and validated. […] The method was applied in the analysis of PK samples obtained after oral and intravenous dose administration in rats.

[5] = tested on: L6 myotubes; experiment: 2-3H-deoxyglucose uptake by skeletal muscle cells; assay type: cell-based, rat; conditions: for 2-deoxyglucose uptake, fold vs. control: 16 h
Description: The fold increase in 2-deoxy-glucose uptake in the presence of test compound by rat skeletal muscle cells (L-6 myotubes) was considered as % antihyperglycemic activity of the test compound which was carried out as follows. L6 myotubes were incubated with increasing concentrations of 14b and the standard drug rosiglitazone (10 μM) for 16 h. After incubation glucose uptake was assessed for 5 min in HEPES-buffered saline [140 mM NaCl, 20 mM HEPES, 5 mM KCl, 2.5 mM MgSO4, 1 mM CaCl2 (pH 7.4)] containing 10 μM 2-deoxyglucose (0.5 μCi/ml 2-[^3H]-deoxyglucose) at room temperature. Subsequently cells were rinsed with an ice-cold solution containing 0.9% NaCl and 20 mM D-glucose. To quantify the radioactivity incorporated, cells were lysed with 0.05 N NaOH and lysates were counted with scintillation fluid in a β-counter. Nonspecific uptake was determined in the presence of cytochalasin B (50 μM) during the assay, and these values were subtracted from all other values. Glucose uptake was measured in triplicate and normalized to total protein, was expressed as fold increase with respect to control cells.

[6] = tested on: sucrose challenged low dosed STZ-induced diabetic rats; experiment: Sucrose challenged low dosed streptozotocin-induced diabetic rats (STZ-S); assay type: in vivo, rat
Description: Fasting blood glucose level of each animal was measured after 48 hours post STZ injection by Glucostrips (Roche) using Glucometer (ACCU-CHEK II; Roche Diagnostics, USA) and animals showing blood glucose level above 280 mg/dl were considered as diabetic. The diabetic rats with fasting blood glucose values varying between […] were included in this study. Animals were divided into groups consisting of five animals in each. Group one was considered as a control group, where as the other groups were termed as experimental groups. […] The test samples and standard drug (Metformin) was always prepared in the vehicle 1% gum acacia. […] Food (not water) was removed from the cages during the experimental period. […] The percent decline in AUC of the experiment group compared to sham treated control group termed as % antihyperglycaemic activity. Statistical analysis between the groups was done by employing Students t test.

C/C(=N\OCCN1CCCCC1)[C@H]1CC[C@H]2[C@@H]3CC=C4C[C@@H](O)CC[C@]4(C)[C@H]3CC[C@]12C [Compound 14b, 3β-Hydroxy-pregna-5-en-20-one-O-(2-piperidin-1-yl-ethyl)-oxime]
% Antihyperglycaemic activity (OGTT improvement) ([1]; 5 mg/kg): 10.5%
% Antihyperglycaemic activity (OGTT improvement) ([1]; 10 mg/kg): 19.8%
% Antihyperglycaemic activity (OGTT improvement) ([1]; 20 mg/kg): 24.5%
% Antihyperglycaemic activity (OGTT improvement) ([1]; 30 mg/kg): 28.9%
% Antihyperglycaemic activity (OGTT improvement) ([1]; 50 mg/kg): 35.9%
stability after extraction from plasma [2]: stable
stability in simulated gastric fluid (SGF) ([3]; SGF): low stability
stability in simulated intestinal fluid (SIF) ([3]; SIF): good stability
absorption, in words ([4]; oral dosing): slow absorption
time at which plasma concentrations peaked post-dose ([4]; oral dosing): ≥ 10 h
AUC(0-t) ([4]; plasma, intravenous route): 826 ± 88.7 ng·h/mL
C0 ([4]; plasma, intravenous route): 166 ± 90.2 ng/mL
MRT ([4]; plasma, intravenous route): 25.3 ± 1.99 h
clearance ([4]; plasma, intravenous route): 206 mL/min/kg
half-life ([4]; plasma, intravenous route, read-out: T1/2 (converted)): 15.4 ± 1.25 h
Vd ([4]; plasma, intravenous route, read-out: Vz): 268 ± 11.3
AUC(0-inf) ([4]; plasma, oral route): 1210 ± 166 ng·h/mL
CL/F ([4]; plasma, oral route): 603 mL/min/kg
Cmax ([4]; plasma, oral route): 40.4 ± 7.03 ng/mL
MRT ([4]; plasma, oral route): 23.2 ± 1.31 h
bioavailability ([4]; plasma, oral route): 33.6%
half-life ([4]; plasma, oral route, read-out: T1/2 (converted)): 14.3 ± 0.95 h
Vd/F ([4]; plasma, oral route, read-out: Vz/F): 739 ± 87.1
half-life ([4]; plasma, route not stated, read-out: elimination half-life): > 14 h
clearance, in words [4]: large clearance
bio-availability, in words ([4]; in vivo): good bio-availability
2-deoxyglucose uptake, fold vs. control ([5]; 1.0 μM): 1.59±0.28 fold
2-deoxyglucose uptake, fold vs. control ([5]; 2.5 μM): 2.61±0.45 fold
2-deoxyglucose uptake, fold vs. control ([5]; 5.0 μM): 2.88±0.74 fold
2-deoxyglucose uptake, fold vs. control ([5]; 10 μM): 3.37±0.12 fold
glucose uptake in presence of cytochalasin-B ([5]; cytochalasin-B 50 μM added to transport solution): completely blocked
minimum concentration increasing glucose uptake to a significant level ([5]; p<0.05): 1.0 µM
melting point: 130 to 135 °C
Blood glucose level, 0 min post sucrose load ([6]; 100 mg/kg): 222.0 ± 7.9 mg/dL
Blood glucose level, 30 min post sucrose load ([6]; 100 mg/kg): 452.6 ± 18.2 mg/dL
Blood glucose level, 60 min post sucrose load ([6]; 100 mg/kg): 524.8 ± 11.2 mg/dL
Blood glucose level, 90 min post sucrose load ([6]; 100 mg/kg): 468.2 ± 12.6 mg/dL
Blood glucose level, 120 min post sucrose load ([6]; 100 mg/kg): 412.6 ± 5.8 mg/dL
Blood glucose level, 180 min post sucrose load ([6]; 100 mg/kg): 345.2 ± 9.2 mg/dL
Blood glucose level, 240 min post sucrose load ([6]; 100 mg/kg): 311.6 ± 3.7 mg/dL
Blood glucose level, 300 min post sucrose load ([6]; 100 mg/kg): 264.8 ± 8.7 mg/dL
Blood glucose level, 1440 min post sucrose load ([6]; 100 mg/kg): 414.8 ± 8.3 mg/dL
% Antihyperglycemic activity STZ-S 0-5 hr ([6]; Table 2): 28.9%
% Antihyperglycemic activity STZ-S 0-24 hr ([6]; Table 2): 25.2%
